Experimental data taken from the NIST ThermoML archive (doi:10.1007/s10765-011-0989-8).
Numbers after ± are expanded uncertainties.

Conditions: 101 kPa, Liquid; for viscosity: Capillary tube (Ostwald / Ubbelohde) method; for mass density: Pycnometric method

CO [methanol]
viscosity (293.15 K): 0.595 ± 0.025 mPa·s | mass density (293.15 K): 791 ± 1 kg/m3 | viscosity (298.15 K): 0.552 ± 0.023 mPa·s | mass density (298.15 K): 786.4 ± 1 kg/m3 | viscosity (303.15 K): 0.514 ± 0.021 mPa·s | mass density (303.15 K): 781.8 ± 1 kg/m3 | viscosity (308.15 K): 0.478 ± 0.02 mPa·s | mass density (308.15 K): 777.2 ± 1 kg/m3 | viscosity (313.15 K): 0.449 ± 0.019 mPa·s | mass density (313.15 K): 771.8 ± 1 kg/m3 | viscosity (323.15 K): 0.394 ± 0.016 mPa·s | mass density (323.15 K): 762.3 ± 1 kg/m3 | viscosity (333.15 K): 0.349 ± 0.015 mPa·s | mass density (333.15 K): 752.4 ± 1 kg/m3
